According to patent publication US5543410A, “Pharmacological use of phthaloylhydrazide derivatives; combination and application thereof” (L.I.M.A.D. Limited, priority 1993, dated 1996):

How the values were obtained:
[1] = aqueous solutions, sodium salt
skin diseases = conditions: water-soluble applications and ointments
[2] = tested on: piglets affected by dysentery; experiment: dysentery in piglets; format: in vivo
Protocol: Experiments were performed with piglets weighing from 30 to 40 kgs, which were affected by dysentery.
Nevertheless, symptoms reappeared six to seven hours later in one group of animals. This factor rendered repeated administration of the drug necessary.

[3] = tested on: proctitis attributable to radiation therapy; conditions: in vivo
From the text: B., a patient who was […], complained of burning sensations in the anus, along with frequent and painful urination, after having received radiation therapy for a period of forty-five days. During a rectosigmoidoscopy examination, intense edema and contact hemorrhaging within the rectal mucosae were observed above the tumor. The diagnosis was: proctitis and cystitis arising from radiation therapy. On account of a lack of specific therapeutic measures, the drug was prescribed for the patient according to a dose of 100 mg per day.

[4] = tested on: Sprague-Dawley Rats' Lipid Metabolism and Serum Lipoproteins; conditions: reducing serum cholesterol; cited from earlier work
metabolic products = format: in vivo; conditions: metabolite

SMILES: Nc1cccc2c(=O)[nH][nH]c(=O)c12
- period remaining fully active [1]: sixty to eighty
- effectiveness in external use (skin diseases): more effective
- time to improvement of condition, diarrhea ceased ([2]; 50 mg/kg, first series): sixty
- time to reappearance of symptoms ([2]; 50 mg/kg, first series, one group of animals): six to seven
- effectiveness in proctitis attributable to radiation therapy [3]: effective for proctitis attributable to radiation therapy

SMILES: O=c1[nH][nH]c(=O)c2ccccc12 [2,3-dihydrophthalazine-1,4-dione]
- activity [4]: extremely high level of activity

SMILES: Nc1ccc2c(=O)[nH][nH]c(=O)c2c1 [4-aminophthaloylhydrazide]
- therapeutic effect ([2]; 10, 25, and 50 mg/kg, third series): relatively insignificant

SMILES: Nc1ccc(C(=O)O)c(C(=O)O)c1 [5-aminophthalic acid]
- excretion unmodified (metabolic products): Most of the aminophthalic acid is expelled from the body without undergoing modification
